{
  "source": "paper PMC10272271",
  "about": "“MAM-2201 acute administration impairs motor, sensorimotor, prepulse inhibition, and memory functions in mice: a comparison with its analogue AM-2201” (Psychopharmacology, 2023)",
  "key": {"CD-1 male mice [1]": {"system": "CD-1 male mice", "assay": "Acoustic response test", "format": "in vivo, mouse", "settings": "for acoustic response reduced to about: immediately after administration", "description": "For the overall study 234 mice were used. In sensorimotor (visual object, visual placing, acoustic, and overall tactile responses) tests for MAM-2201, experiments for each treatment dose (vehicle or 5 different MAM-2201 doses, 0.01, 0.1, 1, 3, and 6 mg/kg) used 8 mice (total mice used: 48) and for MAM-2201 with AM-251 pretreatment, experiments for each dose regimen (vehicle + AM-251 or MAM-2201 + AM-251, 6 mg/kg) used 16 mice. In the analysis of spontaneous locomotion (open field test) for MAM-2201, experiments for each treatment regimen (vehicle or 4 different MAM-2201 doses, 0.01, 0.1, 1, and 6 mg/kg) used 10 mice (total mice used: 50). In the PPI test for MAM-2201, experiments for each treatment (vehicle or 3 different MAM-2201 doses, 0.01, 0.1, and 1 mg/kg) used 10 mice (total mice used: 40), while for MAM-2201 experiments in the Novel Object Recognition (NOR) test for each treatment regimen (vehicle or 3 different MAM-2201 and vehicle or 3 different AM-2201 doses, 0.01, 0.1, and 1 mg/kg) used 10 mice (total mice used: 80). In the present study the effect of MAM-2201 on sensorimotor responses was investigated using a battery of behavioral tests widely used in studies of “safety-pharmacology,” that we routinely adopted in our laboratory, for the preclinical characterization of new molecules in rodents (Ossato et al. [2015]; Vigolo et al. [2015]; Bilel et al. [2020]). The voluntary and involuntary motor responses of the animal to different visual, acoustic, and tactile stimuli were evaluated according to the procedure described in our previous studies (Ossato et al. [2015]; Bilel et al. [2020]). To reduce the number of animals used, mice were evaluated in functional observational tests carried out in a consecutive manner according to the following time scheme: observation of visual object responses (frontal and lateral view), acoustic response, tactile response (vibrissae, corneal and pinnae reflexes), and visual placing response. Sensorimotor tests were measured at 10, 30, 60, 120, 180, 240, and 300 min after injections for the evaluation of the visual object, acoustic and the tactile response, and at 15, 45, 75, 135, 195, 255, and 315 min after injections for the evaluation of visual placing response. Behavioral tests were conducted in a thermostated (temperature: 20–22 °C, humidity: 45–55%) and light (150 lx) controlled room with a background noise of 40 ± 4 dB. The apparatus for the visual object, acoustic and tactile sensorimotor tests consisted of an experimental chamber (350 × 350 × 350 mm) with black methacrylate walls and a transparent front door. During the week before the experiment, each mouse was placed in the box and handled (once a day) on every other day, i.e., 3 times, to get used to both the environment and the experimenter. To avoid olfactory cues, cages were carefully cleaned with a dilute (5%) ethanol solution and rinsed with water. All experiments were performed between 8:30 AM and 2:00 PM and conducted by trained observers working in pairs who were blinded to the treatment being tested (Ossato et al. [2015]). The behavior of mice was videotaped by a camera (B/W USB Camera day & night with varifocal lens; Ugo Basile, Italy) placed at the top or on one side of the box and analyzed off-line by a different trained operator. […] Sensory gating was evaluated by analysis of the pre-pulse inhibition (PPI) of the acoustic startle reflex as previously described (Bilel et al. [2020]). […]"}, "CD-1 male mice [2]": {"system": "CD-1 male mice", "assay": "Acoustic startle and pre-pulse inhibition (PPI) test", "format": "in vivo, mouse"}},
  "data": [
    {"smiles": "Cc1ccc(C(=O)c2cn(CCCCCF)c3ccccc23)c2ccccc12", "note": "[MAM-2201, 1-[(5-fluoropentyl)-1H-indol-3-yl](4-methyl-1-naphthalenyl) methanone]", "values": [
      {"measurement": "acoustic response reduced to about", "setting": "CD-1 male mice [1]; 1 mg/kg i.p.", "result": "about 20%"},
      {"measurement": "acoustic response reduced to about", "setting": "CD-1 male mice [1]; 3 mg/kg i.p.", "result": "~80", "unit": "%"},
      {"measurement": "acoustic response reduced to about", "setting": "CD-1 male mice [1]; 6 mg/kg i.p.", "result": "~100", "unit": "%"},
      {"measurement": "ED50", "setting": "CD-1 male mice [1]; Mus musculus, ip, mice, i.p., value ± SEM, acoustic response test, read-out: ED50 (mg/kg), Startle reflex", "result": "1.25 ± 0.013", "unit": "mg/kg"},
      {"measurement": "effect on startle amplitude", "setting": "CD-1 male mice [2]; only at 1 mg/kg i.p., at 15 and 120 min", "result": "reduced"},
      {"measurement": "effect on PPI (prepulse startle intensity)", "setting": "CD-1 male mice [2]; prepulse 68 dB, 15 min, 0.1 and 1 mg/kg i.p.", "result": "significant decrease"},
      {"measurement": "decrease of PPI", "setting": "CD-1 male mice [2]; prepulse 68 dB, 120 min, 0.1 mg/kg i.p.", "result": "~ 19%"},
      {"measurement": "decrease of PPI", "setting": "CD-1 male mice [2]; prepulse 68 dB, 120 min, 1 mg/kg i.p.", "result": "~40", "unit": "%"},
      {"measurement": "decrease of PPI", "setting": "CD-1 male mice [2]; prepulse 75 dB, 15 min, 0.1 mg/kg i.p.", "result": "~ 28%"},
      {"measurement": "decrease of PPI", "setting": "CD-1 male mice [2]; prepulse 75 dB, 15 min, 1 mg/kg i.p.", "result": "~ 41%"},
      {"measurement": "decrease of PPI", "setting": "CD-1 male mice [2]; prepulse 75 dB, 120 min, 1 mg/kg i.p.", "result": "~ 34%"},
      {"measurement": "decrease of PPI", "setting": "CD-1 male mice [2]; prepulse 85 dB, 15 min, 0.1 mg/kg i.p.", "result": "~ 19%"},
      {"measurement": "decrease of PPI", "setting": "CD-1 male mice [2]; prepulse 85 dB, 15 min, 1 mg/kg i.p.", "result": "~ 37%"}
    ]}
  ]
}
